The subject of one data set is RSV. Nature of the data set: CPE assay, RSV. Type of data set: cell-based, respiratory syncytial virus.
The subject of data set [1] is HIV-1 G3 (subtype G clinical isolate). Nature of the data set: Anti-HIV efficacy in human PBMCs, isolate G3. In kind it is cell-based. The protocol: (§1) HIV human peripheral blood mononuclear cell (PBMC) assays were performed as described previously (Lanier et al., 2010, Antimicrob. Agents Chemother. 54:2901-09; Ptak et al., 2008, Antimicrob. Agents Chemother. 52:1302-17). Briefly, fresh PBMCs, seronegative for HIV and hepatitis B virus (HBV), were isolated from blood samples of the screened donors (Biological Specialty Corporation, Colmar, Pa.) by using lymphocyte separation medium (LSM; density, 1.078±0.002 g/ml; Cellgro; Mediatech, Inc.) by following the manufacturer's instructions. Cells were stimulated by incubation in 4 μg/mL phytohemagglutinin (PHA; Sigma) for 48 to 72 h. Mitogenic stimulation was maintained by the addition of 20 U/mL recombinant human interleukin-2 (rhIL-2; R&D Systems, Inc.) to the culture medium. PHA-stimulated PBMCs from at least two donors were pooled, diluted in fresh medium, and added to 96-well plates at 5×10^4 cells/well. Cells were infected (final multiplicity of infection [MOI] of ≅0.1) in the presence of 9 different concentrations of test compounds (triplicate wells/concentration) and incubated for 7 days. […] Following removal of supernatant samples, compound cytotoxicity was measured by the addition of 3-(4,5-dimethylthiazol-2-yl)-5-(3-carboxymethoxyphenyl)-2-(4-sulfophenyl)-2H-tetrazolium (MTS; CellTiter 96 reagent; Promega) by following the manufacturer's instructions. […]

A further data set can be described thus: in vitro. In kind it is cell-based. The settings on record: human. On the procedure:
HIV human peripheral blood mononuclear cell (PBMC) assays were performed as described previously (Lanier et al., 2010, Antimicrob. Agents Chemother. 54:2901-09; Ptak et al., 2008, Antimicrob. Agents Chemother. 52:1302-17). Briefly, fresh PBMCs, seronegative for HIV and hepatitis B virus (HBV), were isolated from blood samples of the screened donors (Biological Specialty Corporation, Colmar, Pa.) by using lymphocyte separation medium (LSM; density, 1.078±0.002 g/ml; Cellgro; Mediatech, Inc.) by following the manufacturer's instructions. Cells were stimulated by incubation in 4 μg/mL phytohemagglutinin (PHA; Sigma) for 48 to 72 h. Mitogenic stimulation was maintained by the addition of 20 U/mL recombinant human interleukin-2 (rhIL-2; R&D Systems, Inc.) to the culture medium. PHA-stimulated PBMCs from at least two donors were pooled, diluted in fresh medium, and added to 96-well plates at 5×10^4 cells/well. Cells were infected (final multiplicity of infection [MOI] of ≅0.1) in the presence of 9 different concentrations of test compounds (triplicate wells/concentration) and incubated for 7 days. […] Following removal of supernatant samples, compound cytotoxicity was measured by the addition of 3-(4,5-dimethylthiazol-2-yl)-5-(3-carboxymethoxyphenyl)-2-(4-sulfophenyl)-2H-tetrazolium (MTS; CellTiter 96 reagent; Promega) by following the manufacturer's instructions.

The subject of data set [2] is HIV-1 92UG024 (subtype D clinical isolate). Description: Anti-HIV efficacy in human PBMCs, isolate 92UG024. In kind it is cell-based. The protocol: as §1
In a further data set the target is HIV-1NL4-3 CA (Human immunodeficiency virus type 1 group M subtype B, UniProt P12493). Nature of the data set: Surface plasmon resonance direct binding to HIV-1 CA. The protocol: Interaction analyses were performed on a Biacore 3000 optical biosensor (Biacore, Piscataway Township, NJ) with simultaneous monitoring of two flow cells Immobilization of the CA protein to CM7 sensor chips was performed following the standard amine coupling procedure according to the manufacturer's specifications. Briefly, carboxyl groups on the sensor chip surface were activated by injection of 50 μL of a solution containing 0.2 M EDC (1-ethyl-3-[3-dimethylamino-propyl]carbodiimide hydrochloride) and 0.05 M NHS(N-hydroxysuccinimide) at a flow rate of 5 μL min^−1. Next, the 50 μL of CA protein at a concentration of 6 μM in pH 5.0, 10 mM sodium acetate buffer was passed over the chip surface at 25° C. at a flow rate of 5 μL min^−1 Then, after unreacted protein had been washed out, excess active ester groups on the sensor surface were capped by the injection of 50 μL of 1 M ethanolamine (pH 8.0) at a flow rate of 5 μL min^−1. A reference surface with the nonspecific anti-gp120 antibody 17b (Thali et al., 1993, J. Virol. 67:3978-88) immobilized was generated at the same time under the same conditions and was used as background to correct nonspecific binding and for instrument and buffer artifacts.
Stock solutions of CMPD-E and CMPD-F were prepared by dissolving the compounds in 100% dimethyl sulfoxide (DMSO) to a final concentration of 10 mM. To prepare the sample for analysis, 30 μL of the compound stock solution was added to sample preparation buffer (25 mM Tris-HCl, 150 mM NaCl, pH 7.5) to a final volume of 1 mL and mixed thoroughly. Preparation of analyte in this manner ensured that the concentration of DMSO was matched with that of running buffer with 3% DMSO. Lower concentrations of each compound were then prepared by twofold serial dilutions into running buffer (25 mM Tris-HCl, 150 mM NaCl, 3% DMSO, pH 7.5). These compound dilutions were then injected over the control and CA surfaces at a flow rate of 50 μL min^−1, for a 2-min association phase, followed by a 5-min dissociation phase. […]

Data set [3] has as its system HIV-1 CMU08 (subtype E clinical isolate). Nature of the data set: Anti-HIV efficacy in human PBMCs, isolate CMU08. Type of data set: cell-based. On the procedure: as §1
Where [4] appears, read: Human immunodeficiency virus 1, PBMC.

On to `O=C(O)c1ccc(-c2nc(-c3ccccc3)c(-c3ccccc3)[nH]2)cc1` [CMPD-E, 4-(4,5-diphenyl-1H-imidazol-2-yl)benzoic acid], for which the “activity against RSV” value with RSV (CPE assay, up to 100 μM) is “no inhibitory effects”. For the same compound, the IC50 in the data set on RSV (human respiratory syncytial virus, RSV, Vero cells) is > 100 µM; in data set [1] (setting [4]) it was 9.03 µM; in data set [2] (setting [4]) it was 51.8 µM; in data set [3] (setting [4]) it was 100 µM. Also, the “Antiviral index (TC50/IC50)” value in data set [1] (PBMC) is given as >11.1; in data set [2] (PBMC), >1.93; in data set [3] (PBMC), >1. The cytotoxic concentration (CC50) at 7 days in “in vitro” was > 100 µM. Also, binding on HIV-1NL4-3 CA was characterised by a dissociation constant (Kd) of 66.3 ± 4.8 µM. Further, on HIV-1NL4-3 CA (SPR), the “interaction with sensor-chip immobilized HIV-1 CA” value is listed as “directly interacted”.

The record behind these values is patent publication US20130165489A1, “Small Molecule Modulators of HIV-1 Capsid Stability and Methods Thereof” (The Trustees of the University of Pennsylvania, priority 2010, published 2013).
